Values quoted from earlier work, collected in patent publication US11098113B2, “Immunoglobulin single variable domains directed against macrophage migration inhibitory factor” (VIB VZW, priority 2016, dated 2021).

System: LPS stimulated RAW264.7 macrophages
Settings: ISO-1 at 10 μM, same in vitro conditions; cited from earlier work

COC(=O)C[C@@H]1CC(c2ccc(O)cc2)=NO1 (racemic) [ISO-1, (S,R)-3-(4-hydroxyphenyl)-4,5-dihydro-5-isoxazole acetic acid methyl ester]
inhibition of TNF production: about 50%
